The source of these data is ChEMBL document CHEMBL1212927, “Synthesis and structure-activity relationships of novel 8a-aza-8a-homoerythromycin A ketolides” (2010).

In brackets after ≈: the same amount, converted by molar mass.

In assay [1] the test system is Staphylococcus aureus. As to the kind of experiment: Antibacterial activity against inducible macrolide-lincosamide-streptogramin B-resistant Staphylococcus aureus B0538 by agar microdilution method. Type of assay: functional.
For assay [2], the system named is Staphylococcus aureus. As to the kind of experiment: Antibacterial activity against constitutive macrolide-lincosamide-streptogramin B-resistant Staphylococcus aureus B0330 by agar microdilution method. Type of assay: functional.
Assay [3] deals with Staphylococcus aureus. As to the kind of experiment: Antibacterial activity against efflux-resistant Staphylococcus aureus B0331 by agar microdilution method. It is filed as functional.
Assay [4] concerns Streptococcus pneumoniae. Put plainly: Antibacterial activity against constitutive macrolide-lincosamide-streptogramin B-resistant Streptococcus pneumoniae B0627 by agar microdilution method. It is filed as functional.
Assay [5] relates to Streptococcus pneumoniae. As to the kind of experiment: Antibacterial activity against efflux-resistant Streptococcus pneumoniae B0326 by agar microdilution method. It is filed as functional.
Assay [6] deals with Streptococcus pyogenes. Put plainly: Antibacterial activity against inducible macrolide-lincosamide-streptogramin B-resistant Streptococcus pyogenes B0543 by agar microdilution method. Type of assay: functional.
Assay [7] concerns Streptococcus pyogenes. As to the kind of experiment: Antibacterial activity against constitutive macrolide-lincosamide-streptogramin B-resistant Streptococcus pyogenes B0544 by agar microdilution method. It is filed as functional.
Assay [8] deals with Streptococcus pyogenes. As to the kind of experiment: Antibacterial activity against efflux-resistant Streptococcus pyogenes B0545 by agar microdilution method. It is filed as functional.
A further assay has as its system Moraxella catarrhalis. Put plainly: Antibacterial activity against Moraxella catarrhalis B0324 by agar microdilution method. Type of assay: functional.
A further assay concerns Haemophilus influenzae. As to the kind of experiment: Antibacterial activity against Haemophilus influenzae B0529 by agar microdilution method. Type of assay: functional.
In assay [9] the test system is Staphylococcus aureus. Put plainly: Antibacterial activity against erythromycin A-susceptible Staphylococcus aureus B0329 by agar microdilution method.
In assay [10] the test system is Streptococcus pneumoniae. As to the kind of experiment: Antibacterial activity against erythromycin-susceptible Streptococcus pneumoniae B0541 by agar microdilution method.
Assay [11] concerns Streptococcus pyogenes. As to the kind of experiment: Antibacterial activity against erythromycin A-susceptible Streptococcus pyogenes B0542 by agar microdilution method.

As to `CCOc1ccccc1N1CCN(CC(O)CO[C@]2(C)C[C@@H](C)NC(=O)[C@H](C)[C@@H](O)[C@](C)(O)[C@@H](CC)OC(=O)[C@H](C)C(=O)[C@H](C)[C@H]2O[C@@H]2O[C@H](C)C[C@H](N(C)C)[C@H]2O)CC1` (mixture of isomers), the MIC was 2 µg/mL against Staphylococcus aureus [1]; > 64 µg/mL against Staphylococcus aureus [2]; 4 µg/mL in the assay with Staphylococcus aureus [3]; 16 µg/mL against Streptococcus pneumoniae [4]; 8 µg/mL in the assay with Streptococcus pneumoniae [5]; 8 µg/mL with Streptococcus pyogenes [6]. Also, the MIC stood at 16 µg/mL with Streptococcus pyogenes [7]; 4 µg/mL in the assay on Streptococcus pyogenes [8]; 2 µg/mL in the assay with Moraxella catarrhalis; 32 µg/mL with Haemophilus influenzae; 2 µg/mL in the assay with Staphylococcus aureus [9]; 0.5 µg/mL in the assay on Streptococcus pneumoniae [10]. The MIC against Streptococcus pyogenes [11] is ≤ 0.125 µg/mL.
With `CC[C@H]1OC(=O)[C@H](C)C(=O)[C@H](C)[C@@H](O[C@@H]2O[C@H](C)C[C@H](N(C)C)[C@H]2O)[C@](C)(OCC(O)CNCc2cnc3ccccc3c2)C[C@@H](C)NC(=O)[C@H](C)[C@@H](O)[C@]1(C)O` (mixture of isomers), the MIC in the assay with Staphylococcus aureus [1] is 2 µg/mL; in the assay with Staphylococcus aureus [2], > 64 µg/mL; against Staphylococcus aureus [3] it was 0.5 µg/mL; in the assay with Streptococcus pneumoniae [4], 8 µg/mL; against Streptococcus pneumoniae [5], 4 µg/mL; with Streptococcus pyogenes [6] it was 4 µg/mL. Also, the MIC with Streptococcus pyogenes [7] is 8 µg/mL; against Streptococcus pyogenes [8] it was 8 µg/mL; in the assay with Moraxella catarrhalis, 2 µg/mL; in the assay on Haemophilus influenzae it was 4 µg/mL; in the assay with Staphylococcus aureus [9], 1 µg/mL; against Streptococcus pneumoniae [10], ≤ 0.125 µg/mL. In the assay with Streptococcus pyogenes [11], the MIC is ≤ 0.125 µg/mL.
As to `CC[C@H]1OC(=O)[C@H](C)C(=O)[C@H](C)[C@@H](O[C@@H]2O[C@H](C)C[C@H](N(C)C)[C@H]2O)[C@](C)(OCC(O)CNCCNc2cnc3ccccc3c2)C[C@@H](C)NC(=O)[C@H](C)[C@@H](O)[C@]1(C)O` (mixture of isomers), the MIC is 1 µg/mL in the assay on Staphylococcus aureus [1]; > 64 µg/mL against Staphylococcus aureus [2]; 0.25 µg/mL in the assay with Staphylococcus aureus [3]; 1 µg/mL with Streptococcus pneumoniae [4]; 0.25 µg/mL in the assay on Streptococcus pneumoniae [5]; 1 µg/mL with Streptococcus pyogenes [6]. Moreover, the MIC in the assay on Streptococcus pyogenes [7] is 4 µg/mL; in the assay with Streptococcus pyogenes [8], 0.5 µg/mL; against Moraxella catarrhalis it was ≤ 0.125 µg/mL; with Haemophilus influenzae, 1 µg/mL; against Staphylococcus aureus [9], 1 µg/mL; against Streptococcus pneumoniae [10], ≤ 0.125 µg/mL. Besides, in the assay on Streptococcus pyogenes [11], the MIC is ≤ 0.125 µg/mL.
On to `CC[C@H]1OC(=O)[C@H](C)[C@@H](O[C@H]2C[C@@](C)(OC)[C@@H](O)[C@H](C)O2)[C@H](C)[C@@H](O[C@@H]2O[C@H](C)C[C@H](N(C)C)[C@H]2O)[C@](C)(O)C[C@@H](C)CN(C)[C@H](C)[C@@H](O)[C@]1(C)O` [AZITHROMYCIN], for which the MIC with Staphylococcus aureus [1] was > 64 µg/mL; with Staphylococcus aureus [2] it was > 64 µg/mL; in the assay with Staphylococcus aureus [3], > 64 µg/mL; in the assay on Streptococcus pneumoniae [4], > 64 µg/mL; in the assay with Streptococcus pneumoniae [5] it was 4 µg/mL (≈ 5.34 µM); against Streptococcus pyogenes [6] it was 8 µg/mL (≈ 10.7 µM). Also, the MIC in the assay on Streptococcus pyogenes [7] is > 64 µg/mL; against Streptococcus pyogenes [8], 1 µg/mL (≈ 1.34 µM); in the assay on Moraxella catarrhalis, 0.25 µg/mL (≈ 0.334 µM); in the assay on Haemophilus influenzae it was 1 µg/mL (≈ 1.34 µM); against Staphylococcus aureus [9], 1 µg/mL (≈ 1.34 µM); against Streptococcus pneumoniae [10], ≤ 0.125 µg/mL. Moreover, the MIC with Streptococcus pyogenes [11] is ≤ 0.125 µg/mL.
As for `CC[C@H]1OC(=O)[C@H](C)C(=O)[C@H](C)[C@@H](O[C@@H]2O[C@H](C)C[C@H](N(C)C)[C@H]2O)[C@](C)(OCC=Cc2cnc3ccccc3c2)C[C@@H](C)C(=O)[C@H](C)[C@H]2NC(=O)O[C@@]21C` [CETHROMYCIN], the MIC was 0.25 µg/mL (≈ 0.326 µM) against Staphylococcus aureus [1]; > 64 µg/mL against Staphylococcus aureus [2]; 0.25 µg/mL (≈ 0.326 µM) with Staphylococcus aureus [3]; ≤ 0.125 µg/mL against Streptococcus pneumoniae [4]; ≤ 0.06 µg/mL in the assay with Streptococcus pneumoniae [5]; ≤ 0.06 µg/mL against Streptococcus pyogenes [6]. Further, the MIC was 1 µg/mL (≈ 1.31 µM) against Streptococcus pyogenes [7]; ≤ 0.125 µg/mL against Streptococcus pyogenes [8]; ≤ 0.125 µg/mL against Moraxella catarrhalis; 1 µg/mL (≈ 1.31 µM) against Haemophilus influenzae; ≤ 0.06 µg/mL against Staphylococcus aureus [9]; ≤ 0.06 µg/mL with Streptococcus pneumoniae [10]. Further, in the assay on Streptococcus pyogenes [11], the MIC was ≤ 0.06 µg/mL.
With `CC[C@H]1OC(=O)[C@H](C)C(=O)[C@H](C)[C@@H](O[C@@H]2O[C@H](C)C[C@H](N(C)C)[C@H]2O)[C@](C)(OC)C[C@@H](C)C(=O)[C@H](C)[C@H]2N(CCCCn3cnc(-c4cccnc4)c3)C(=O)O[C@]12C` [TELITHROMYCIN], the MIC with Staphylococcus aureus [1] was 0.5 µg/mL (≈ 0.616 µM); in the assay with Staphylococcus aureus [2] it was > 64 µg/mL; against Staphylococcus aureus [3], 0.25 µg/mL (≈ 0.308 µM); in the assay with Streptococcus pneumoniae [4], ≤ 0.125 µg/mL; against Streptococcus pneumoniae [5], 0.5 µg/mL (≈ 0.616 µM); with Streptococcus pyogenes [6], ≤ 0.06 µg/mL. Also, the MIC against Streptococcus pyogenes [7] was 4 µg/mL (≈ 4.93 µM); with Streptococcus pyogenes [8], 0.25 µg/mL (≈ 0.308 µM); in the assay on Moraxella catarrhalis it was ≤ 0.125 µg/mL; against Haemophilus influenzae it was 1 µg/mL (≈ 1.23 µM); against Staphylococcus aureus [9], ≤ 0.125 µg/mL; with Streptococcus pneumoniae [10], ≤ 0.06 µg/mL. In the assay with Streptococcus pyogenes [11], the MIC is ≤ 0.06 µg/mL.
